5 compounds from publication PMC9794991, “Evaluation of analogs of mutacin 1140 in systemic and cutaneous methicillin-resistant Staphylococcus aureus infection models in mice” (Frontiers in Microbiology, 2022) can be followed below.

Values after ≈ are worked out from the molar mass of the structure shown. Values joined by “and” are separate entries in the source; they are usually repeats but may differ in a detail not shown here. Equal values may be shown once. Where a name gives a salt, the structure may show the parent alone. Read-outs that look alike come from different tables or passages of the source.

Assay [1] relates to S. aureus ATCC 33591 (MRSA). The assay is described as follows: MIC in broth (CLSI M07-A8) against MRSA 33591. It is filed as cell-based, Staphylococcus aureus. The protocol:
(§1) Preparation of the antimicrobial agent and bacterial inoculum for MICs was performed by following the method described by the Clinical and Laboratory Standards Institute (CLSI; M07-A8; [CLSI, 2018]) and as previously reported by our group ([Chen et al., 2013]; [Escano et al., 2017]; [Geng and Smith, 2018]). […] A single colony from an overnight culture of S. aureus was inoculated in 10 ml of THyex broth (30 g/L Todd Hewitt broth, 3 g/L yeast extract). The inoculum was placed in a shaking incubator at 37°C and 280 rpm and grown to an OD600 of 0.6–0.8. The culture broth was then diluted to an OD600 of 0.132, after which a 20-fold dilution in fresh broth was performed resulting in a ~5 × 10^5 CFU/ml cell density. Mu1140 and Mu1140 analogs were solubilized in dimethyl sulfoxide (DMSO) at a concentration of 1 mg/ml as the stock solution. […] The same volume of DMSO was added to all test samples including the no-drug control. The cultures were placed in a shaking incubator at 37°C and 200 rpm (Stuart orbital incubator SI500). A 100 μl sample from each culture was taken at each time point of 0, 0.25, 0.5, 0.75, 1, 1.5, 2, 4, 8, 18, and 24 h and was serially diluted in fresh medium before being spread on THyex agar plates (30 g/L Todd Hewitt broth, 3 g/L yeast extract, 15 g/L agar) for determining the CFUs. The plates were allowed to grow for 24 h at 37°C before the colony-forming units (CFUs) were counted. The CFU/ml for each time-point at each drug concentration was determined using at least two independent cultures. Plates having 30 to 300 colonies were used for CFU measurements.

For another assay, the system named is clinical MRSA isolates. The assay is described as follows: MIC in broth against a panel of clinical MRSA isolates. The format is cell-based. Particulars: Staphylococcus aureus.
For the next assay, the system named is S. aureus ATCC 33591. The assay is described as follows: Time-kill study (kill kinetics). The format is cell-based, Staphylococcus aureus. The protocol: as §1
Assay [2] concerns S. aureus ATCC33591 skin infection. The assay is described as follows: Intravenous treatment of an in vivo MRSA acute skin infection. Set-up: species or system BALB/c mice. On the procedure:
Mice were acclimatized to the environment for at least 7 days before initiating experiments. After shaving the hair on the dorsum of the mice, a 50 μl suspension of S. aureus ATCC33591 in PBS, containing 1.5 × 10^7 CFUs, was injected subcutaneously (subq). No bleeding was observed during all injections. […] Mice were separated into four groups (n = 8 for the treatment groups and n = 6 for the control). […] The last group received the no-drug vehicle control (PBS with 5% DMSO). Weights of mice were measured at least once per day, while behavior and the wounds were monitored multiple times per day. Mice were sacrificed approximately 24-h after the last i.v. treatment (Day 6; D6). Dermal tissues at the infected sites were sampled and homogenized in sterile PBS. The homogenates were serially diluted and plated on THyex agar for determining CFUs.

Assay [3] has as its system MRSA (S. aureus ATCC 33591) systemic infection. The experiment in a line: In vivo MRSA systemic infection model (survival). Particulars: single 10 mg/kg i.v. dose 1 h post-infection.
Protocol: The vehicle (saline with 15% DMSO) served as the no-drug control group of mice. Each mouse was monitored every 4 h during the first 2 days post-infection (day 0 to day 2), and every 8 h from day 2 to day 5.
Assay [4] concerns S. aureus ATCC TCH1516 skin infection. The experiment in a line: Topical treatment of incision MRSA skin infection (Trial 1). The format is in vivo, BALB/c mice. Particulars: for Group mean (±SE) of log CFU/infection site: 10 mg/kg/day topical, twice daily for 6 days from 24 h post-infection, n = 6, vehicle control 5.33 ± 0.64. On the procedure: Trial 1: In this trial, the infection model was performed following methods that were previously reported ([Kugelberg et al., 2005]; [Guo et al., 2013]; [Simonetti et al., 2020]). […] Seven groups (n = 6 mice/group) were acclimatized to the environment for at least 7 days before the start of the experiment. Once the hair on the dorsum of the mice was shaved, a 1 cm incision was made and a 50 μl suspension of S. aureus ATCC TCH1516 in PBS, containing 2 × 10^7 CFUs, was applied directly to the incision. Mice were housed individually until inoculum dried at the incision site (Day (D) 0). Approximately 24 h later (D1), treatment was applied topically twice daily for 6 days. […] Another group received the no-drug vehicle control (0.6% noble agar in citrate buffer). Weights of mice were measured at least once per day, while behavior and the wounds were monitored multiple times per day. Mice were sacrificed 1 day after the last topical treatment (D7). Dermal tissues at the infected sites were sampled and homogenized in sterile PBS. The homogenates were serially diluted and plated on THyex agar for determining CFUs.

Assay [5] relates to S. aureus ATCC33591 skin infection. The experiment in a line: Subcutaneous treatment of subcutaneous MRSA skin infection (Trial 2). The format is in vivo, BALB/c mice. Particulars: three times per day for 3 days from 48 h post-infection, n = 8. The protocol:
Trial 2: In this trial, the infection model was performed following methods that were previously reported ([Guo et al., 2013]; [Dejani et al., 2016]). […] Mice were acclimatized to the environment for at least 7 days before initiating experiments. After shaving the hair on the dorsum of the mice, a 50 μl suspension of S. aureus ATCC33591 in PBS, containing 1.5 × 10^7 CFUs, was injected subq (D0). As noted in trial 1, no bleeding was observed during all injections. […] Mice were separated into four groups (n = 8 for treatment and no-drug vehicle control groups; D2). […] The last group received the no-drug vehicle control (sterile water with 20% DMSO). Treatments were administered three times per day to the mice through a 3-point subq injection around the scab with the needle pointed toward the center of the wound. Weights of mice were measured at least once per day, while behavior and the wound sites were monitored multiple times per day. Mice were sacrificed approximately 24-h after the last subq treatment (D6). Dermal tissues at the infected sites were sampled and homogenized in sterile PBS. The homogenates were serially diluted and plated on THyex agar for determining CFUs.

[6] abbreviates: 10 mg/kg/day i.v. for 5 days, n = 8.
[7] abbreviates: Staphylococcus aureus, MRSA 33591, in broth, read-out: MIC.

As to `CN[C@H](CC(C)C)C(=O)N[C@H]1C(=O)N[C@@H](CC(N)=O)C(=O)N[C@H]2C(=O)N[C@H]3C(=O)N[C@H](C(=O)N[C@H](C(=O)O)c4cc(O)cc(O)c4-c4cc3ccc4O)[C@H](O)c3ccc(c(Cl)c3)Oc3cc2cc(c3O[C@@H]2O[C@H](CO)[C@@H](O)[C@H](O)[C@H]2O[C@H]2C[C@](C)(N)[C@H](O)[C@H](C)O2)Oc2ccc(cc2Cl)[C@H]1O` [Vancomycin, Vancomycin hydrochloride], the minimum inhibitory concentration (MIC) (commonly the lowest concentration found to suppress growth) was 2 µg/mL in assay [1] (Staphylococcus aureus); 2 µg/mL with clinical MRSA isolates (MRSA / USA300, strain USA300, in broth); 2 µg/mL in the assay on clinical MRSA isolates (MRSA, strain 602, in broth); 2 µg/mL against clinical MRSA isolates (MRSA, strain 611, in broth); 2 µg/mL in the assay on clinical MRSA isolates (MRSA, strain 616, in broth); 2 µg/mL with clinical MRSA isolates (MRSA, strain 631, in broth). Further, the MIC against clinical MRSA isolates (MRSA, strain 640, in broth) stood at 1 µg/mL; with clinical MRSA isolates (MRSA, strain 641, in broth), 2 µg/mL; against clinical MRSA isolates (MRSA, strain 644, in broth), 2 µg/mL; with clinical MRSA isolates (MRSA, strain 30476, in broth), 2 µg/mL; against clinical MRSA isolates (MRSA, strain 31225, in broth) it was 1 µg/mL; in the assay on clinical MRSA isolates (MRSA, strain 31258, in broth), 1 µg/mL. Further, the MIC against clinical MRSA isolates (MRSA, strain CA347, in broth) was 2 µg/mL; in the assay with clinical MRSA isolates (MRSA, strain CA513, in broth) it was 4 µg/mL; in the assay with clinical MRSA isolates (MRSA, strain CA-409, in broth) it was 2 µg/mL; against clinical MRSA isolates (MRSA, strain CO-34, in broth), 2 µg/mL; in the assay on clinical MRSA isolates (MRSA, strain GA442, in broth) it was 4 µg/mL; in the assay on clinical MRSA isolates (MRSA, strain HFH30364, in broth) it was 2 µg/mL. For the same compound, the MIC turned out to be 1 µg/mL against clinical MRSA isolates (MRSA, strain HFH30522, in broth); 2 µg/mL with clinical MRSA isolates (MRSA, strain N315, in broth); 0.5 µg/mL in the assay with clinical MRSA isolates (MRSA, strain SAEH06, in broth). In addition, the “reduction in viable cells” value in the assay with S. aureus ATCC 33591 (0.5× MIC) is “negligible differences between the vehicle control and the treatment groups”. For the same compound, the “time needed for a 2-log reduction in CFUs” value in the assay with S. aureus ATCC 33591 (1× and 2× MIC) is 8 hours. For the same compound, the “time until viable cell counts dropped below the detection limit” value in the assay with S. aureus ATCC 33591 (2× MIC) is listed as “more than 8 h”. In the assay with S. aureus ATCC 33591 (2× MIC), the “viable cells at 18 and 24 h post-administration” value is “no viable cells”. For the same compound, the “effect on bacterial load at the skin lesion site” value is given as “did not have any significant effect on the bacterial load” in assay [2] (setting [6]) and “did not show any statistical significance to vehicle control” in assay [2] (10 mg/kg/day i.v. for 5 days, n = 8, listed as vancomycin). Also, in assay [3], the “survival at 12 h post-infection” value worked out at 75.0%. In addition, the “survival at 24 h post-infection” value in assay [3] was found to be 50%.
On to `CC(=O)O[C@H]1C[C@@]2(C)[C@@H](C[C@@H](O)[C@H]3[C@@]4(C)CC[C@@H](O)[C@@H](C)[C@@H]4CC[C@@]32C)/C1=C(\CCC=C(C)C)C(=O)O` [Fusidic acid], for which, in assay [1] (setting [7]), the MIC came to 1 µg/mL (≈ 1.94 µM). The “log reduction in bacterial load compared to the vehicle control group” value in assay [4] (10 mg/kg/day topical for 6 days, not statistically significant) came to 2.17 log. The “Group mean (±SE) of log CFU/infection site” value is given as 3.16 ± 0.50 log CFU/infection site in assay [4] and 3.16 log CFU/infection site in assay [4] (listed as fusidic acid).
As for daptomycin, in assay [2] (25 mg/kg i.v. dose, same experimental conditions, data not shown), the “effect on bacterial load at the lesion site” value was “no impact on the bacterial load”.
Turning to mutacin 1140 [Mu1140], the MIC in assay [1] (MRSA 33591, in broth) was 0.5 µg/mL. Further, in assay [1] (S. aureus 33591), the “MIC compared to fusidic acid and linezolid” value is “two-fold lower”; the “MIC compared to vancomycin” value is listed as “four-fold lower”. In assay [2] (setting [6]), the “effect on bacterial load at the skin lesion site” value is “statistically significant reduction in CFUs”. For the same compound, in assay [2] (10 mg/kg/day i.v. for 5 days, Cohen's d = 1.27, p = 0.0265), the “mean difference in bacteria load to the vehicle control group” value is 0.61 log CFU. The “bacteria count at the lesion” value in assay [2] (10 mg/kg/day i.v. twice daily for 5 days from 48 h post-infection, n = 8, vehicle control 7.82) is given as 7.21 log CFU. Besides, in assay [4], the “Group mean (±SE) of log CFU/infection site” value is 5.23 log CFU/infection site and 5.23 ± 0.93 log CFU/infection site. The “log reduction in CFUs (mean difference to vehicle control)” value in assay [5] (25 mg/kg/day subq) stood at 0.78 log. For the same compound, in assay [3], the “survival at 12 h post-infection” value turned out to be 100% and the “survival at 24 h post-infection” value stood at 83.3%.
In the case of `CC(=O)NC[C@H]1CN(c2ccc(N3CCOCC3)c(F)c2)C(=O)O1` [Linezolid, linezolid], in assay [1] (setting [7]), the minimum inhibitory concentration (MIC) was 1 µg/mL (≈ 2.96 µM). Further, the “log reduction in CFUs (mean difference to vehicle control)” value in assay [5] (75 mg/kg/day subq) stood at 0.6 log; in assay [5] (75 mg/kg/day subq, listed as linezolid), 0.60 log.
